# Data taken from ChEMBL document CHEMBL1681646 (Bioorg Med Chem Lett, 2011).
# Biological target: T1, Pancreatic triacylglycerol lipase (Sus scrofa, UniProt P00591)
# T1 sequence (P00591 whole entry): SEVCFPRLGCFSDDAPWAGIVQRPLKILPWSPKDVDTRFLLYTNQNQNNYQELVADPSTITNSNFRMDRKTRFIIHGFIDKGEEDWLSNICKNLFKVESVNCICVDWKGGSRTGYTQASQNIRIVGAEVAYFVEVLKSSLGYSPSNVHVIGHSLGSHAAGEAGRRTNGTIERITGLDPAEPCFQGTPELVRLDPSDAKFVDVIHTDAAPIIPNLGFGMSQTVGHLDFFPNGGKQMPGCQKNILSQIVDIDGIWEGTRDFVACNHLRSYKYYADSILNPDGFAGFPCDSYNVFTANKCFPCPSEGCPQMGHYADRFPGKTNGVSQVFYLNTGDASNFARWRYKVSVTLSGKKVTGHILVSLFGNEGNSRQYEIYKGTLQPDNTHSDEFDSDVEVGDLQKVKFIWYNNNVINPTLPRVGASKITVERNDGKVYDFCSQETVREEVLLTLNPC
# Experiment: Inhibition of pig pancreatic lipase assessed as p-NPB hydrolysis […]
row,Structure (SMILES),IC50 [µM]
1,COc1cc(C(=O)O)ccc1O [VANILLIC ACID],> 250
2,COc1cc([C@H](O)[C@H](C)O)ccc1O (relative stereo),9.1
3,COc1cc([C@@H](O)[C@H](C)O)ccc1O (relative stereo),12.1

# Continued, values first:
row,IC50 [µM],Structure (SMILES)
1,232,COc1cc([C@H]2CC(=O)O[C@H]2C)ccc1O (relative stereo) [CURCULACTONE A]
2,174,COc1cc(C=O)ccc1O [VANILLIN]
